# Test results reported in ChEMBL document CHEMBL1135948, “A solid-phase approach towards the synthesis of PDE5 inhibitors” (Bioorg Med Chem Lett, 2002).
# Target: cGMP-specific 3',5'-cyclic phosphodiesterase (Homo sapiens) (UniProt O76074)
# Assay: Percentage inhibition against phosphodiesterase 5 (PDE5) was determined using [3H]cGMP scintillation proximity assay at concentration of 1 uM
row,SMILES,inhibition
1,C#Cn1c(=O)c2[nH]c(Cc3ccc(Br)cc3)nc2n(CC(C)C)c1=O,68%
2,CC(C)Cn1c(=O)n(CO)c(=O)c2[nH]c(Cc3ccc(Br)cc3)nc21,88%
3,CC(C)Cn1c(=O)n(Cc2cccc3c2OCO3)c(=O)c2[nH]c(Cc3ccc(Br)cc3)nc21,13%
4,CCn1c(=O)c2[nH]c(Cc3ccc(Br)cc3)nc2n(CC(C)C)c1=O,93%
5,CC(C)Cn1c(=O)n(COc2ccccc2)c(=O)c2[nH]c(Cc3ccc(Br)cc3)nc21,33%
6,CC(C)Cn1c(=O)n(CCC2CCCCC2)c(=O)c2[nH]c(Cc3ccc(Br)cc3)nc21,42%
7,CCOc1ccccc1-n1c(=O)c2[nH]c(Cc3ccc(Br)cc3)nc2n(CC(C)C)c1=O,38%
8,CC(C)Cn1c(=O)n(C2CCC2)c(=O)c2[nH]c(Cc3ccc(Br)cc3)nc21,4%
9,CC(C)Cn1c(=O)n(CN(C(C)C)C(C)C)c(=O)c2[nH]c(Cc3ccc(Br)cc3)nc21,41%
10,CC(C)Cn1c(=O)n(CN)c(=O)c2[nH]c(Cc3ccc(Br)cc3)nc21,38%
11,CC(C)Cn1c(=O)n(C)c(=O)c2[nH]c(Cc3ccc(Br)cc3)nc21,93%
12,CC(C)Cn1c(=O)n(CSc2ccccc2)c(=O)c2[nH]c(Cc3ccc(Br)cc3)nc21,15%

# The next lines start with the values.
row,inhibition,SMILES
1,59%,CC(C)Cn1c(=O)n(-c2cncn2C)c(=O)c2[nH]c(Cc3ccc(Br)cc3)nc21
2,20%,CC(C)Cn1c(=O)n(-c2ccccn2)c(=O)c2[nH]c(Cc3ccc(Br)cc3)nc21
3,35%,CC(C)Cn1c(=O)n(CC(C)(C)C)c(=O)c2[nH]c(Cc3ccc(Br)cc3)nc21
4,57%,CCCn1c(=O)c2[nH]c(Cc3ccc(Br)cc3)nc2n(CC(C)C)c1=O
5,22%,CC(C)Cn1c(=O)n(-c2ccncc2)c(=O)c2[nH]c(Cc3ccc(Br)cc3)nc21
6,42%,CC(C)Cn1c(=O)[nH]c(=O)c2[nH]c(Cc3ccc(Br)cc3)nc21
